What was measured:
Type in all cases: cell-based, male wister rats
fat cells [1] = assay: Synthesis of fat from glucose in fat cells; settings: 20 μg/ml; for Power for synthesis of neutral fat from glucose: 37° C., half an hour; for Rate of promotion / activation at 20 µg/mL: none = 100; for activation at 20 µg/mL: Rattus norvegicus, 0.5 h, read-out: Rate of promotion
Procedure: (§1) Fat tissues were separated from the epididymides of male wister rats weighing 150 to 180 g each, and fat cells were obtained therefrom in accordance with the Rodbell's method [M. Rodbell, J. Biol. Chem., 239, 375 (1964)]. A small section was prepared from 4 g of the fat tissue, and placed in 10 ml. of Krebs-Ringer bicarbonate buffer containing 0.4 g of albumin, 10 mg of collagenase and 5 mg of glucose, and having a pH value of 7.4. It was heated at 37° C. for 50 minutes, and subjected to centrifugal separation at 300 rpm, whereby a floating fat cell layer was separated. Added into the fat cell were 10 ml. of the aforesaid buffer (pH 7.4), and the solution was carefully stirred to wash the fat cell, followed by centrifugal separation at 300 rpm for 30 seconds. This procedure was repeated twice, whereby the fat cells were washed perfectly, and these fat cells were used for the tests.
^14 C-glucose having its carbon atoms marked with radioactivity was reacted upon fat cells, and a Geiger count was read to determine the amount of the glucose participating in the fat synthesis and incorporated into the fat cells as a neutral fat, whereby gynosaponins were tested for their effects on the power of the glucose for fat synthesis.
More specifically, the fat cells obtained by treating with collagenase were suspended in KRB, and 0.35 ml. of the resulting solution containing 100 mg of fat cells was placed into a test tube with 0.1 ml. of each saponin solution containing 20 μg of saponin, 0.5 ml. of a 5% albumin solution in KRB, containing 10 mM glucose and having a pH value of 7.4, and 0.05 ml. of a ^14 C-glucose solution which was a 0.5 μCi KRP solution having a pH value of 7.4 and containing 10 mM glucose. They were heated at 37° C. for half an hour, and after 5 ml. of Dole's extract were added and the whole was shaked for five minutes, 3 ml. of heptane and 2 ml. of water were added, and the whole was shaked for five minutes. 3 ml. of a heptane layer were separated, and after an alkaline ethanol solution (0.5 N sodium hydroxide solution, 50 % ethanol solution) was added in the amount of 3 ml., the whole was shaked for five minutes. Then, 1 ml. of an ethanol layer was separated, and 10 ml. of a toluene scintillation solution were added thereinto, followed by determination according to the method of Skipski et al. [Biochem. Biophys. Acta, 106, 386 (1965)].

fat cells [2] = assay: Decomposition of the fat in the fat cell by ACTH; settings: 37° C., two hours; for inhibition at 20 µg/mL: Rattus norvegicus, 2 h, read-out: Rate of inhibition
Procedure: as §1
The fat cells obtained by treating with collagenase were suspended in Krebs-Ringer bicarbonate buffer (KRB) having a pH value of 7.4. Placed into a test tube were 0.3 ml. of the solution thus obtained (containing 100 mg of fat cells), 0.1 ml. of ACTH solution containing 1 μg of ACTH, 0.1 ml. of each saponin solution containing 500 μg of saponin, and 0.3 ml. of a 5% alubumin solution in KRB, and having a pH value adjusted to 7.4. They were heated at 37° C. for two hours, and the amount of the resulting free fatty acid was determined in accordance with the Dole's method [V. P. Dole, J. Biol. Chem., 35, 150 (1958)].
Namely, 3 ml. of Dole's extract were separated into the reaction system, and 1 ml. of a thymol blue solution was added thereinto. Nitrogen was blown into the resulting solution, and the solution was titrated with a 0.008 N aqueous solution of sodium hydroxide, while it was being stirred. The amount of the resulting free fatty acid was determined in accordance with a calibration curve.
The rate of inhibition against fat decomposition was obtained in accordance with the following equation: [formula] wherein A stands for the amount of the free fatty acid formed by addition of ACTH along in the amount of 1 μg/ml.; and B stands for the amount of the free fatty acid formed by addition of ACTH and saponin in the amount of 1 μg/ml. and 20 μg/ml., respectively.

fat cells [3] = assay: Decomposition by adrenalin of the fat in the fat cells; settings: adrenalin 1 μg/ml + saponin 20 μg/ml, 37° C., two hours; for inhibition at 20 µg/mL: Rattus norvegicus, 2 h, read-out: Rate of inhibition
Procedure: A small section was prepared from 4 g of the fat tissue, and placed in 10 ml. of Krebs-Ringer bicarbonate buffer containing 0.4 g of albumin, 10 mg of collagenase and 5 mg of glucose, and having a pH value of 7.4. […] Added into the fat cell were 10 ml. of the aforesaid buffer (pH 7.4), and the solution was carefully stirred to wash the fat cell, followed by centrifugal separation at 300 rpm for 30 seconds. This procedure was repeated twice, whereby the fat cells were washed perfectly, and these fat cells were used for the tests.
The fat cells obtained by treating with collagenase were suspended in Krebs-Ringer phosphate buffer (KRP) having a pH value of 7.4. Placed into a test tube were 0.3 ml. of the solution thus obtained, and containing 100 mg of fat cells, 0.1 ml. of an adrenalin solution containing 1 μg of adrenalin, 0.1 ml. of a saponin solution containing 20 μg of saponin, and 0.5 ml. of a 5% albumin solution in KRP, and having a pH value adjusted to 7.4. […] More specifically, 3 ml. of Dole's extract were placed in the reaction system, and after they were shaked for five minutes, 3 ml. of heptane were dispensed, and 1 ml. of a thymol blue solution was added thereinto. The resulting solution was titrated with a 0.008 N aqueous solution of sodium hydroxide, while it was being stirred with nitrogen, and the amount of the resulting free fatty acid was determined in accordance with a calibration curve.
The rate of inhibition was obtained in accordance with the equation shown at (1) above.

[4] = ACTH 1 μg/ml + saponin 20 μg/ml

Row | Molecule | Power for synthesis of neutral fat from glucose (fat cells [1]) | Rate of promotion (fat cells [1]) [%] | Free fatty acid formed by decomposition of fat (fat cells [2]; [4]) [μ Eq/g] | Rate of inhibition (fat cells [2]; [4]) [%] | Free fatty acid formed by decomposition of fat (fat cells [3]) [μ Eq/g] | Rate of inhibition (fat cells [3]) [%] | activation at 20 µg/mL (fat cells [1]) [%] | inhibition at 20 µg/mL (fat cells [2]; [4]) [%] | inhibition at 20 µg/mL (fat cells [3]) [%] | Free fatty acid formed by decomposition of fat (fat cells [2]; ACTH alone, 1 μg/ml) [μ Eq/g]
1 | 20S,26-Hydroxyprotopanaxadiol-3-O-{[β-D-glucopyranosyl (1→2)-α-L-rhamnopyranosyl (1→6)]-β-D-glucopyranoside}-20-O-[α-L-rhamnopyranosyl (1→6)-β-D-glucopyranoside] [gynosaponin O] | 8,263 cpm/g | 38 | 5.6 | 33 | 13.9 | 1 | – | – | – | –
2 | 20S,26-Hydroxyprotopanaxadiol-3-O-{[β-D-glucopyranosyl (1→2)-α-L-rhamnopyranosyl (1→6)]-β-D-glucopyranoside}-20-O-[β-D-glucopyranosyl (1→6)-β-D-glucopyranoside] [gynosaponin T] | 11,150 cpm/g | 52 | 6.3 | 25 | 13.1 | 7 | – | – | – | –
3 | 20S-Protopanaxadiol-3-O-{[β-D-glucopyranosyl (1→2)-α-L-rhamnopyranosyl (1→6)]-β-D-glucopyranoside} [progynosapogenin A--AH] | 10,550 cpm/g | 49 | 6.3 | 25 | 12.4 | 12 | – | – | – | –
4 | 20S-Protopanaxadiol-3-O-{[β-D-glucopyranosyl (1→2)-α-L-rhamnopyranosyl (1→6)]-β-D-glucopyranoside}-20-O-[α-L-rhamnopyranosyl (1→6)-β-D-glucopyranoside] [gynosaponin B] | 12,308 cpm/g | 57 | 6.9 | 18 | 9.1 | 35 | – | – | – | –
5 | 20S-Protopanaxadiol-3-O-{[β-D-glucopyranosyl (1→2)-α-L-rhamnopyranosyl (1→6)]-β-D-glucopyranoside}-20-O-[β-D-glucopyranosyl (1→6)-β-D-glucopyranoside] [gynosaponin A] | 8,013 cpm/g | 37 | 6.1 | 27 | 13.4 | 5 | – | – | – | –
6 | 20S-Protopanaxadiol-3-O-{[β-D-glucopyranosyl (1→2)-α-L-rhamnopyranosyl (1→6)]-β-D-glucopyranoside}-20-O-β-D-glucopyranoside [gynosaponin F] | 11,620 cpm/g | 54 | 6.3 | 25 | 13.4 | 5 | – | – | – | –
7 | CC(C)=CCC[C@](C)(O[C@@H]1O[C@H](CO[C@@H]2O[C@@H](C)[C@H](O)[C@@H](O)[C@H]2O)[C@@H](O)[C@H](O)[C@H]1O)[C@H]1CC[C@]2(C)[C@@H]1[C@H](O)C[C@@H]1[C@@]3(C)CC[C@H](O[C@@H]4O[C@H](CO)[C@@H](O)[C@H](O)[C@H]4O[C@@H]4O[C@H](CO)[C@@H](O)[C@H](O)[C@H]4O)C(C)(C)[C@@H]3CC[C@]12C [gynosaponin E, 20S-Protopanaxadiol-3-O-[β-D-glucopyranosyl (1→2)-β-D-glucopyranoside]-20-O-[α-L-rhamnopyranosyl (1→6)-β-D-glucopyranoside]] | 10,248 cpm/g | – | 5.9 | – | 9.4 | – | 48 | 30 | 33 | –
8 | CC(C)=CCC[C@](C)(O[C@@H]1O[C@H](CO[C@@H]2O[C@@H](C)[C@H](O)[C@@H](O)[C@H]2O)[C@@H](O)[C@H](O)[C@H]1O)[C@H]1CC[C@]2(C)[C@@H]1[C@H](O)C[C@@H]1[C@@]3(C)CC[C@H](O[C@@H]4O[C@H](CO[C@@H]5O[C@@H](C)[C@H](O)[C@@H](O)[C@H]5O)[C@@H](O)[C@H](O)[C@H]4O)C(C)(C)[C@@H]3CC[C@]12C [gynosaponin G, 20S-Protopanaxadiol-3,20-bis-O-[α-L-rhamnopyranosyl (1→6)-β-D-glucopyranoside]] | 8,925 cpm/g | – | 5.8 | – | 13.8 | – | 42 | 31 | 2 | –
9 | CC(C)=CCC[C@](C)(O[C@@H]1O[C@H](CO[C@@H]2OC[C@@H](O)[C@H](O)[C@H]2O)[C@@H](O)[C@H](O)[C@H]1O)[C@H]1CC[C@]2(C)[C@@H]1[C@H](O)C[C@@H]1[C@@]3(C)CC[C@H](O[C@@H]4O[C@H](CO)[C@@H](O)[C@H](O)[C@H]4O)C(C)(C)[C@@H]3CC[C@]12C [gynosaponin I, 20S-Protopanaxadiol-3-O-β-D-glucopyranoside-20-O-[β-D-xylopyranosyl (1→6)-β-D-glucopyranoside]] | 10,564 cpm/g | – | 6.6 | – | 12.7 | – | 49 | 21 | 10 | –
10 | ACTH: ACTH, used at 1 μg/ml to decompose fat in fat cells (SYSMEHFRWGKPVGKKRRPVKVYPNGAEDESAEAFPLEF; Corticotropin; UniProt P01189 138-176, looked up) [reference compound] | – | – | – | – | – | – | – | – | – | 8.4

Source: US4339442A, “Gynosaponins, their use and a process for preparing the same” (priority 1980, dated 1982)
